Tests used:
OPM-2 = test: cells; assay type: functional, cell-based, Homo sapiens; conditions: Homo sapiens, OPM-2;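 further: growth of OPM-2 cells measured with a viability assay, IC50 for suppression of proliferation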
Description: SANGER: Inhibition of human OPM-2 cell growth in a cell viability assay.

MONO-MAC-6 = test: cells; assay type: functional, cell-based, Homo sapiens; conditions: Homo sapiens, MONO-MAC-6;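 further: cell viability assay measuring growth inhibition of human MONO-MAC-6 cells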
Description: SANGER: Inhibition of human MONO-MAC-6 cell growth in a cell viability assay.

BL-41 = test: cells; assay type: functional, cell-based, Homo sapiens; conditions: Homo sapiens, BL-41;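 further: growth inhibition of human BL-41 cells, read out with a cell viability assay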
Description: SANGER: Inhibition of human BL-41 cell growth in a cell viability assay.

TE-15 = test: cells; assay type: functional, cell-based, Homo sapiens; conditions: Homo sapiens, TE-15;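 further: cell viability readout of growth inhibition in TE-15 cells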
Description: SANGER: Inhibition of human TE-15 cell growth in a cell viability assay.

ECC4 = test: cells; assay type: functional, cell-based, Homo sapiens; conditions: Homo sapiens, ECC4;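 further: growth inhibition of ECC4 cells, read out with a cell viability assay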
Description: SANGER: Inhibition of human ECC4 cell growth in a cell viability assay.

BL-70 = test: SANGER: Inhibition of human BL-70 cell growth in a cell viability assay.; assay type: functional, cell-based; conditions: Homo sapiens, BL-70
NCI-H1522 = test: cells; assay type: functional, cell-based, Homo sapiens; conditions: Homo sapiens, NCI-H1522;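 further: growth inhibition of NCI-H1522 cells, read out with a cell viability assay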
Description: SANGER: Inhibition of human NCI-H1522 cell growth in a cell viability assay.

CESS = test: SANGER: Inhibition of human CESS cell growth in a cell viability assay.; assay type: functional, cell-based; conditions: Homo sapiens, CESS
SIMA = test: cells; assay type: functional, cell-based, Homo sapiens; conditions: Homo sapiens, SIMA;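 further: growth inhibition of SIMA cells, measured with a cell viability readout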
Description: SANGER: Inhibition of human SIMA cell growth in a cell viability assay.

HCC1599 = test: cells; assay type: functional, cell-based, Homo sapiens; conditions: Homo sapiens, HCC1599;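 further: growth inhibition of HCC1599 cells, read out in a cell viability assay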
Description: SANGER: Inhibition of human HCC1599 cell growth in a cell viability assay.

MDA-MB-134-VI = test: cells; assay type: functional, cell-based, Homo sapiens; conditions: Homo sapiens, MDA-MB-134-VI
Description: SANGER: Inhibition of human MDA-MB-134-VI cell growth in a cell viability assay.

| SMILES | IC50 (OPM-2) | IC50 (MONO-MAC-6) | IC50 (BL-41) | IC50 (TE-15) | IC50 (ECC4) | IC50 (BL-70) | IC50 (NCI-H1522) | IC50 (CESS) | IC50 (SIMA) | IC50 (HCC1599) | IC50 (MDA-MB-134-VI) |
| --- | --- | --- | --- | --- | --- | --- | --- | --- | --- | --- | --- |
| OCCCNc1cc(-c2ccnc(Nc3cccc(Cl)c3)n2)ccn1 | 153 nM | 85.9 nM | 33.6 nM | 39.4 nM | > 256 nM | 30.1 nM | > 256 nM | 40.1 nM | > 256 nM | 43.9 nM | > 256 nM |
| COc1cc(N2CCN(C)CC2)ccc1Nc1ncc2c(n1)N(C)c1ccccc1C(=O)N2C | 3300 nM | > 8000 nM | 3650 nM | > 8000 nM | > 8000 nM | > 8000 nM | > 8000 nM | 7750 nM | > 8000 nM | > 8000 nM | > 8000 nM |
| CC[C@H](CO)Nc1nc(NCc2ccccc2)c2ncn(C(C)C)c2n1 [SELICICLIB] | > 16000 nM | > 16000 nM | > 16000 nM | > 16000 nM | > 16000 nM | > 16000 nM | > 16000 nM | > 16000 nM | > 16000 nM | 14600 nM | > 16000 nM |
| CC(=O)O[C@H]1C(=O)[C@@]2(C)[C@H]([C@H](OC(=O)c3ccccc3)[C@]3(O)C[C@H](OC(=O)[C@H](O)[C@@H](NC(=O)c4ccccc4)c4ccccc4)C(C)=C1C3(C)C)[C@]1(OC(C)=O)CO[C@@H]1C[C@@H]2O [PACLITAXEL] | 36.7 nM | 30.2 nM | 9.34 nM | 0.287 nM | > 102 nM | 9.3 nM | > 102 nM | 7.37 nM | > 102 nM | 20.2 nM | > 102 nM |
| N[C@@H](CSC(c1ccccc1)(c1ccccc1)c1ccccc1)C(=O)O [S-TRITYL-L-CYSTEINE] | 3290 nM | 1150 nM | 1640 nM | 1020 nM | > 5120 nM | 547 nM | > 5120 nM | 606 nM | > 5120 nM | 1230 nM | > 5120 nM |
| CCN(CC)CCNC(=O)c1c(C)[nH]c(/C=C2\C(=O)Nc3ccc(F)cc32)c1C [SUNITINIB] | 3060 nM | 33.8 nM | 2910 nM | 508 nM | > 8000 nM | 1120 nM | > 8000 nM | 7100 nM | > 8000 nM | > 8000 nM | > 8000 nM |
